Results on six compounds are retold here after patent US20240376153A1, “CNP CYCLIC PEPTIDE, AND MEDICINE, EXTERNAL PREPARATION AND COSMETIC EACH CONTAINING SAID CYCLIC PEPTIDE” (Igisu Co., Ltd., priority 2015, published 2024).

Positions of bridges follow the written chain, without caps; N, C: chain ends. Residues, ends and D or L forms follow the SMILES beside them. No end group written: not given here.

For data set [1], the system named is affected site of psoriasis. Kind of data set: Effect of C-ring / CNP gel formulation on psoriasis. Type of data set: in vivo, human. The note with it: psoriasis patient P6; after 3 days from the application. The source says:
Followings are the summary of the therapeutic effects for psoriasis cases. As described above, the C-ring gel formulation was applied to the affected site of psoriasis, and changes in symptoms before and after the application were observed. When possible, as a comparative example, the CNP gel formulation described above was applied onto another affected site of the same subject where the C-ring gel formulation had not been applied, and changes in symptoms before and after the application were observed. Examination result is given in tables below with subjects' age, sex and symptoms, and prescription for the subjects.

For data set [2], the system named is normal subjects who have symptoms of lip roughness. Kind of data set: Lip mucosal condition after application of C-ring gel formulation. Type of data set: in vivo, human. The note with it: lip roughness (cases I1-I5); 1 μM, 1 application. The source says:
To normal subjects who have symptoms of lip roughness, the C-ring gel formulation was applied and changes in lip mucosal conditions were observed and summarized in the following table. Changes in the mucosal condition were judged based on based on cenesthesic evaluation by the subject and objective observation by the inventor as a physician.

Data set [3] concerns nasal cavity, the affected site. Kind of data set: Effect on nose of cyclic peptides in which amino acid was substituted. As to conditions: nasal application once/day.
Experimental: The obtained cyclic peptide was combined with purified water at 1, 5, 30, 100, 500 μg/ml and applied to the affected site. Formulations A to E in the tables refers to the cyclic peptide of 1, 5, 30, 100, 500 μg/ml, respectively.

Take “Gly-Leu-Ser-Lys-Gly-Cys-Phe-Gly-Leu-Lys-Leu-Asp-Arg-Ile-Gly-Ser-Met-Ser-Gly-Leu-Gly-Cys (GLSKGCFGLKLDRIGSMSGLGC; disulfide 6-22; listed as Homo sapiens) [CNP, human wild-type C-type natriuretic peptide (American Peptide Company)]”: the “Results of two-sided application on lower thighs (FIG. 1)” value in data set [1] is “scales became inconspicuous but still remains, and erythema and infiltration were improved only a little”. Besides, the “Post-application Symptoms” value in data set [2] is “remained on corner of mouth”.
For the compound `CC[C@H](C)[C@@H]1NC(=O)CNC(=O)[C@H](CO)NC(=O)[C@H](CCSC)NC(=O)[C@H]([C@@H](C)O)NC(=O)CNC(=O)[C@H]([C@@H](C)CC)NC(=O)[C@H](CCCNC(=N)N)NC(=O)[C@H](CC(=O)O)NC(=O)[C@H](CC(C)C)NC(=O)[C@H](CCCCN)NC(=O)[C@H](CC(C)C)NC(=O)CNC(=O)[C@H](Cc2ccccc2)NC(=O)[C@@H](N)CSSC[C@@H](C(=O)O)NC(=O)CNC1=O` [SEQ ID NO: 40] (H-CFGLKLDRIGTMSGIGC-OH; disulfide 1-17; N-terminus and C-terminus assumed), the “irritation upon nasal application” value in data set [3] (Formulation C = 30 μg/ml) is given as “There was no irritation upon nasal application”.
`CC[C@H](C)[C@@H]1NC(=O)CNC(=O)[C@H]([C@@H](C)O)NC(=O)[C@H](CCSC)NC(=O)[C@H](CO)NC(=O)CNC(=O)[C@H]([C@@H](C)CC)NC(=O)[C@H](CCCNC(=N)N)NC(=O)[C@H](CC(=O)O)NC(=O)[C@H](CCSC)NC(=O)[C@H](CCCCN)NC(=O)[C@H](CC(C)C)NC(=O)[C@H](C)NC(=O)[C@H](Cc2ccccc2)NC(=O)[C@@H](N)CSSC[C@@H](C(=O)O)NC(=O)CNC1=O` [SEQ ID NO: 59] (H-CFALKMDRIGSMTGIGC-OH; disulfide 1-17; N-terminus and C-terminus assumed): the “irritation upon nasal application” value in data set [3] (Formulation D = 100 μg/ml) is on record as “upon blowing. There was no irritation upon nasal”.
On to `CC[C@H](C)[C@@H]1NC(=O)[C@H](CCCNC(=N)N)NC(=O)[C@H](CC(=O)O)NC(=O)[C@H](CC(C)C)NC(=O)[C@H](CCCCN)NC(=O)[C@H](CC(C)C)NC(=O)CNC(=O)[C@H](Cc2ccccc2)NC(=O)[C@@H](N)CSSC[C@@H](C(=O)O)NC(=O)CNC(=O)[C@H](CC(C)C)NC(=O)CNC(=O)[C@H]([C@@H](C)O)NC(=O)[C@H](CCSC)NC(=O)[C@H]([C@@H](C)O)NC(=O)CNC1=O` [SEQ ID NO: 39] (H-CFGLKLDRIGTMTGLGC-OH; disulfide 1-17; N-terminus and C-terminus assumed), for which the “irritation upon nasal application” value in data set [3] (Formulation C = 30 μg/ml) is listed as “upon blowing. There was no irritation upon nasal”.
In the case of `CC[C@H](C)[C@@H]1NC(=O)CNC(=O)[C@H](CO)NC(=O)[C@H](CCSC)NC(=O)[C@H](CO)NC(=O)CNC(=O)[C@H]([C@@H](C)CC)NC(=O)[C@H](CCCNC(=N)N)NC(=O)[C@H](CC(=O)O)NC(=O)[C@H](CCSC)NC(=O)[C@H](CCCCN)NC(=O)[C@H](CC(C)C)NC(=O)[C@H](C)NC(=O)[C@H](Cc2ccccc2)NC(=O)[C@@H](N)CSSC[C@@H](C(=O)O)NC(=O)CNC1=O` [SEQ ID NO: 50] (H-CFALKMDRIGSMSGIGC-OH; disulfide 1-17; N-terminus and C-terminus assumed), the “irritation upon nasal application” value in data set [3] (Formulation C = 30 μg/ml) was “stopped. There was no irritation upon nasal application”.
Turning to `CC[C@H](C)[C@@H]1NC(=O)CNC(=O)[C@H](CO)NC(=O)[C@H](CCSC)NC(=O)[C@H]([C@@H](C)O)NC(=O)CNC(=O)[C@H]([C@@H](C)CC)NC(=O)[C@H](CCCNC(=N)N)NC(=O)[C@H](CC(=O)O)NC(=O)[C@H](CCSC)NC(=O)[C@H](CCCCN)NC(=O)[C@H](CC(C)C)NC(=O)CNC(=O)[C@H](Cc2ccccc2)NC(=O)[C@@H](N)CSSC[C@@H](C(=O)O)NC(=O)CNC1=O` [SEQ ID NO: 52] (H-CFGLKMDRIGTMSGIGC-OH; disulfide 1-17; N-terminus and C-terminus assumed), in data set [3] (Formulation C = 30 μg/ml), the “irritation upon nasal application” value is “clear. There was no irritation upon nasal application”.
